Counter-ions that a name gives are not always drawn.
target: T1, Human CXCR4 transfected HEK293 cells (Homo sapiens, UniProt P61073); assay: CXCR4 functional calcium assay (calcium flux FLIPR, antagonism of SDF1 response); type: cell-based; settings: CXCR4 functional activity, antagonism of SDF1 (EC50 concentration), read-out: CXCR4 fKi
T1 construct: expressed in transfected cells; host or cells: HEK293
Procedure, shortened: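 HEK293 cells stably transfected with human CXCR4 were loaded with 2 μM Fluo-4 AM in HBSS containing 2.5 mM probenecid, 0.1% BSA and 10 mM HEPES at pH 7.4 and 37° C. Compound was added first, then SDF1 at its EC50 concentration, and intracellular calcium fluorescence was followed on a FLIPR. Antagonist dose-response curves were fitted.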

T1 sequence (P61073 whole entry): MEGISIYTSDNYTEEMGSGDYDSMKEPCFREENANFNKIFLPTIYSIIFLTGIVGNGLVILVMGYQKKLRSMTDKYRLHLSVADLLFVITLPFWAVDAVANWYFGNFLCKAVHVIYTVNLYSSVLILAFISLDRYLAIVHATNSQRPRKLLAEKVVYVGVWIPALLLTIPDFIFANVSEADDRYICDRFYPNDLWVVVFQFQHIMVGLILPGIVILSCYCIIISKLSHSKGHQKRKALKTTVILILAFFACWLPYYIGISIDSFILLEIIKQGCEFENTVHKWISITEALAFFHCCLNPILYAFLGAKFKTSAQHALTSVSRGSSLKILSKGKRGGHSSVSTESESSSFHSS

SMILES | Ki [nM]
CC(C)N1CCC(NCCCNc2cccc(C(=O)Nc3ccncc3)n2)CC1 [Example 239, 6-[(3-{[1-(Propan-2-yl)piperidin-4-yl]amino}propyl)amino]-N-(pyridin-4-yl)pyridine-2-carboxamide] | 100 to 500
Cc1cccc(N2CCCN(C3CCN(Cc4ccccc4Cl)CC3)CC2)n1 [Example 262, 1-{1-[(2-Chlorophenyl)methyl]piperidin-4-yl}-4-(6-methylpyridin-2-yl)-1,4-diazepane] | 500 to 1000
CC(C)N1CCC(N2CCCN(c3cccc(C(=O)N(C)Cc4cccnc4)n3)CC2)CC1 [Example 35, N-Methyl-6-{4-[1-(Propan-2-yl)piperidin-4-yl]-1,4-diazepan-1-yl}-N-(pyridin-3-ylmethyl)pyridine-2-carboxamide] | 100 to 500
CCc1nc(-c2cccc(N3CCCN(C4CCN(C(C)C)CC4)CC3)n2)no1 [Example 155, 1-[6-(5-Ethyl-1,2,4-oxadiazol-3-yl)pyridine-2-yl]-4-[1-(propan-2-yl)piperidin-4-yl]-1,4-diazepane trihydrochloride] | 100 to 500
CC(C)N1CCC(N2CCCN(c3cccc(-c4nnc(C5CC5)o4)n3)CC2)CC1 [Example 172, 1-[6-(5-Cyclopropyl-1,3,4-oxadiazol-2-yl)pyridin-2-yl]-4-[1-(propan-2-yl)piperidin-4-yl]-1,4-diazepane] | 100 to 500
COCCCNC(=O)c1cccc(N2CCCN(C3CCN(C(C)C)CC3)CC2)n1 [Example 15, N-(3-Methoxypropyl)-6-{4-[1-(propan-2-yl)piperidin-4-yl]-1,4-diazepan-1-yl}pyridine-2-carboxamide] | 100 to 500
CC(C)N1CCC(N2CCCN(c3cccc(-c4ncc(C(F)(F)F)[nH]4)n3)CC2)CC1 [Example 112, 1-[1-(Propan-2-yl)piperidin-4-yl]-4-{6-[4-(trifluoromethyl)-1H-imidazol-2-yl]pyridine-2-yl}-1,4-diazepane] | 500 to 1000
CC(C)N1CCC(N2CCCN(c3cccc(-c4ncc(C(C)(C)C)[nH]4)n3)CC2)CC1 [Example 113, 1-[6-(4-tert-Butyl-1H-imidazol-2-yl)pyridine-2-yl]-4-[1-(propan-2-yl)piperidin-4-yl]-1,4-diazepane] | 100 to 500
Cc1ccnc(N2CCCN(C3CCN(Cc4ccccc4Cl)CC3)CC2)c1 [Example 264, 1-{1-[(2-Chlorophenyl)methyl]piperidin-4-yl}-4-(4-methylpyridin-2-yl)-1,4-diazepane] | 100 to 500
CC(C)N1CCC(N2CCCN(c3cccc(-c4cc5ncccc5[nH]4)n3)CC2)CC1 [Example 96, 1-[1-(Propan-2-yl)piperidin-4-yl]-4-(6-{1H-pyrrolo[3,2-b]pyridine-2-yl}pyridine-2-yl)-1,4-diazepane] | 20 to 100
CCC(CC)N1CCC(N2CCCN(c3cccc(C(=O)NCC4CC4)n3)CC2)CC1 [Example 66, N-(Cyclopropylmethyl)-6-{4-[1-(pentan-3-yl)piperidin-4-yl]-1,4-diazepan-1-yl}pyridine-2-carboxamide] | 20 to 100
CC(C)N1CCC(N2CCCN(c3cccc(-c4nc5cccc(F)c5[nH]4)n3)CC2)CC1 [Example 142, 7-Fluoro-2-(6-{4-[1-(propan-2-yl)piperidin-4-yl]-1,4-diazepan-1-yl}pyridine-2-yl)-1H-1,3-benzodiazole] | 20 to 100
Cc1cc(C(=O)NCC2CC2)nc(N2CCCN(C3CCN(Cc4ccccc4Cl)CC3)CC2)c1 [Example 268, 6-(4-{1-[(2-Chlorophenyl)methyl]piperidin-4-yl}-1,4-diazepan-1-yl)-N-(cyclopropylmethyl)-4-methylpyridine-2-carboxamide] | 100 to 500
CC(C)N1CCC(N2CCCN(c3cccc(-c4nc5ccc(F)cc5[nH]4)n3)CC2)CC1 [Example 147, 6-Fluoro-2-(6-{4-[1-(propan-2-yl)piperidin-4-yl]-1,4-diazepan-1-yl}pyridine-2-yl)-1H-1,3-benzodiazole] | 20 to 100
CC(C)CN(C)C(=O)c1cccc(N2CCCN(C3CCN(C(C)C)CC3)CC2)n1 [Example 17, N-Methyl-N-(2-methylpropyl)-6-{4-[1-(propan-2-yl)piperidin-4-yl]-1,4-diazepan-1-yl}pyridine-2-carboxamide] | 500 to 1000
CC(CF)N1CCC(N2CCCN(c3cccc(C(=O)NCC4CC4)n3)CC2)CC1 (centres unmarked) [Example 67, N-(Cyclopropylmethyl)-6-{4-[1-(1-fluoropropan-2-yl)piperidin-4-yl]-1,4-diazepan-1-yl}pyridine-2-carboxamide] | 500 to 1000
O=C(NCC1CC1)c1cccc(N2CCCN(C3CCN(Cc4cccc(Cl)c4)CC3)CC2)n1 [Example 134, 6-(4-{1-[(3-Chlorophenyl)methyl]piperidin-4-yl}-1,4-diazepan-1-yl)-N-(cyclopropylmethyl)pyridine-2-carboxamide] | 100 to 500
CC(C)N1CCC(N2CC3CCC2CN(c2cccc(C(=O)NCC4CC4)n2)C3)CC1 (centres unmarked) [Example 199, N-(Cyclopropylmethyl)-6-{6-[1-(propan-2-yl)piperidin-4-yl]-3,6-diazabicyclo[3.2.2]nonan-3-yl}pyridine-2-carboxamide trihydrochloride] | 500 to 1000
CC(C)N1CCC(N2CCCN(c3cccc(-c4noc(C5CCCC5)n4)n3)CC2)CC1 [Example 162, 1-[6-(5-Cyclopentyl-1,2,4-oxadiazol-3-yl)pyridine-2-yl]-4-[1-(propan-2-yl)piperidin-4-yl]-1,4-diazepane] | 100 to 500
CC(C)(C)N1CCC(N2CCCN(c3cccc(C(=O)NCC4CC4)n3)CC2)CC1 [Example 64, 6-[4-(1-tert-Butylpiperidin-4-yl)-1,4-diazepan-1-yl]-N-(cyclopropylmethyl)pyridine-2-carboxamide] | 20 to 100

Results, then the compound that gave them:

Ki [nM] | SMILES
< 20 | CCc1nc(-c2cccc(N3CCCN(C4CCN(C(C)C)CC4)CC3)n2)[nH]c1C1CC1 [Example 122, 1-[6-(4-Cyclopropyl-5-ethyl-1H-imidazol-2-yl)pyridine-2-yl]-4-[1-(propan-2-yl)piperidin-4-yl]-1,4-diazepane]
20 to 100 | Cc1nc(-c2cccc(N3CCCN(C4CCN(C(C)C)CC4)CC3)n2)[nH]c1C [Example 118, 1-[6-(4,5-Dimethyl-1H-imidazol-2-yl)pyridine-2-yl]-4-[1-(propan-2-yl)piperidin-4-yl]-1,4-diazepane]
20 to 100 | O=C(NCc1cccnc1)c1cccc(N2CCCN(C3CCN(Cc4ccccc4Cl)CC3)CC2)n1 [Example 55, 6-(4-{1-[(2-Chlorophenyl)methyl]piperidin-4-yl}-1,4-diazepan-1-yl)-N-(pyridine-3-ylmethyl)pyridine-2-carboxamide]
20 to 100 | CC(C)N1CCO[C@H](CN2CCCN(c3cccc(C(=O)Nc4ccncc4)n3)CC2)C1 [Example 244, 6-(4-{[(2R)-4-(Propan-2-yl)morpholin-2-yl]methyl}-1,4-diazepan-1-yl)-N-(pyridin-4-yl)pyridine-2-carboxamide]
< 20 | C[C@H](N1CCC(N2CCCN(c3cccc(C(=O)Nc4ccncc4)n3)CC2)CC1)C(F)(F)F [Example 82, N-(Pyridin-4-yl)-6-(4-{1-[(2S)-1,1,1-trifluoropropan-2-yl]piperidin-4-yl}-1,4-diazepan-1-yl)pyridine-2-carboxamide]
< 20 | CCc1cnc(-c2cccc(N3CCCN(C4CCN(C(C)C)CC4)CC3)n2)[nH]1 [Example 108, 1-[6-(4-Ethyl-1H-imidazol-2-yl)pyridine-2-yl]-4-[1-(propan-2-yl)piperidin-4-yl]-1,4-diazepane]
20 to 100 | CC(C)N1CCC(N2CCCN(c3cccc(-c4cc5ccncc5[nH]4)n3)CC2)CC1 [Example 98, 1-[1-(Propan-2-yl)piperidin-4-yl]-4-(6-{1H-pyrrolo[2,3-c]pyridine-2-yl}pyridine-2-yl)-1,4-diazepane]
< 20 | O=C(Nc1ccncc1)c1cccc(N2CCCN(C3CCN(C4CCCC4)CC3)CC2)n1 [Example 83, 6-[4-(1-Cyclopentylpiperidin-4-yl)-1,4-diazepan-1-yl]-N-(pyridine-4-yl)pyridine-2-carboxamide]
< 20 | CC(C)N1CCC(N2CCCN(c3cccc(C(=O)Nc4ccncc4)n3)CC2C)CC1 (centres unmarked) [Example 193, 6-{3-Methyl-4-[1-(propan-2-yl)piperidin-4-yl]-1,4-diazepan-1-yl}-N-(pyridin-4-yl)pyridine-2-carboxamide]
< 20 | CC(C)N1CCC(N2CCCN(c3cccc(C(=O)Nc4cncs4)n3)CC2)CC1 [Example 32, 6-{4-[1-(Propan-2-yl)piperidin-4-yl]-1,4-diazepan-1-yl}-N-(1,3-thiazol-5-yl)pyridine-2-carboxamide]
< 20 | CC(C)N1CCC(N2CCCN(c3cccc(C(=O)Nc4ccccn4)n3)CC2)CC1 [Example 28, 6-{4-[1-(Propan-2-yl)piperidin-4-yl]-1,4-diazepan-1-yl}-N-(pyridin-2-yl)pyridine-2-carboxamide]
< 20 | [2H]C1([2H])CCN(c2cccc(C(=O)Nc3ccncc3)n2)CCN1C1CCN(C(C)C)CC1 [Example 186, 6-{5,5-Dihydrogenio-4-[1-(propan-2-yl)piperidin-4-yl]-1,4-diazepan-1-yl}-N-(pyridin-4-yl)pyridine-2-carboxamide]
< 20 | [2H]C1([2H])CCN(C2CCN(Cc3ccccc3Cl)CC2)CCN1c1cccc(C(=O)Nc2ccncc2)n1 [Example 180, 6-(4-{1-[(2-Chlorophenyl)methyl]piperidin-4-yl}-7,7-dihydrogenio-1,4-diazepan-1-yl)-N-(pyridin-4-yl)pyridine-2-carboxamide]
< 20 | O=C(NCC1CC1)c1cccc(N2CCCN(C3CCN(Cc4ccc(F)cc4Cl)CC3)CC2)n1 [Example 135]
< 20 | O=C(NCc1ccncc1)c1cccc(N2CCCN(C3CCN(Cc4ccccc4Cl)CC3)CC2)n1 [Example 56, 6-(4-{1-[(2-Chlorophenyl)methyl]piperidin-4-yl}-1,4-diazepan-1-yl)-N-(pyridine-4-ylmethyl)pyridine-2-carboxamide]

Source: US10995091B2 (Proximagen, LLC, priority 2010, dated 2021)
